Numbering of substitutions follows the chain as printed.
Assays:
IDH2 Wild-Type = target: T1, IDH2 Wild-Type (Homo sapiens, UniProt P48735); experiment: Biochemical assay for wild-type IDH2 enzyme (αKG by LC-MS); conditions: mean ± standard deviation of the mean
T1 construct: His-tag (N); made in house; host or cells: E. coli
T1 sequence (P48735 40-452): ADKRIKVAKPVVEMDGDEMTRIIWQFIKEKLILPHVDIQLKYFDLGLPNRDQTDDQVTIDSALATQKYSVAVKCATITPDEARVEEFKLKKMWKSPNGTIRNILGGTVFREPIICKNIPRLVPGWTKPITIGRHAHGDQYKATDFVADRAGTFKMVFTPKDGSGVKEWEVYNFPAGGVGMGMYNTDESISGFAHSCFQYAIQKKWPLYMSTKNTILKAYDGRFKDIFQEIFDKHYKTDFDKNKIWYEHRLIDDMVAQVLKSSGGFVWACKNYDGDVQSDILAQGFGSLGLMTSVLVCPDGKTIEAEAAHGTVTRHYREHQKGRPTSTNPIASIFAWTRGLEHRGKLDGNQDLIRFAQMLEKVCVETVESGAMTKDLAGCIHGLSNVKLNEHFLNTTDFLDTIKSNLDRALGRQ
Method: IDH1 and IDH2 enzymes catalyze the conversion of isocitrate to αKG. Wild-type IDH1 (National Center for Biotechnology Information, Accession: NP_001269316.1) and IDH2 (National Center for Biotechnology Information, Accession: EAX02082.1) proteins containing N-terminal His-tag are expressed in E. coli and purified using nickel affinity chromatography. The enzyme assays are carried out in V-bottom 96 well polypropylene plates containing 100 mM Tris-HCl buffer at pH 7.5, 1 mM DTT, 0.005% TRITON™ X-100, 120 mM NaCl. For the IDH1 wild-type assay isocitrate, NADP^+ and MnCl2 are included at the concentrations of 85 μM, 50 μuM and 20 μM respectively. For the IDH2 wild-type assay isocitrate, NADP^+ and MnCl2 are included at the concentrations of 30 μM, 50 μM and 10 μM respectively. Inhibitors dissolved in a DMSO stock solution are diluted in the reaction mixture at a final DMSO concentration of 4%. The enzyme assay is terminated (quenched) by adding ACN (50:50) containing d6-2-ketopentanedioic acid (d6-αKG) as an internal standard for mass spectrometry analysis. Ten microliters of reaction mixture is combined with 100 μL of water, 50 μL of 1 M O-benzylhydroxylamine in pyridine buffer (8.6% pyridine, pH 5), and 50 μL of 1 M N-(3-dimethylaminopropyl)-N-ethylcarbodiimide hydrochloride (EDC) in pyridine buffer. Following derivatization at room temperature for one hour, samples are extracted with 600 μL of EtOAc. Four hundred […] of the upper layer is removed, dried under heated nitrogen and reconstituted with 100 μL of MeOH/water (1:1). Ten μL of derivatized sample is injected onto an LC-MS system consisting of a Shimadzu Prominence 20A HPLC system and a The Thermo Quantum Ultra™ triple quadrupole mass spectrometer. Analytes are separated on a Waters XBridge™ C18 column (2.1×50 mm, […]) with a flow rate of 0.6 mL/minute. Mobile phase A is 0.1% formic acid in water and mobile phase B is MeOH. The αKG signal detected is transformed into analyte concentration using a calibration curve generated using known αKG concentrations. […] IC50 values are obtained from the individual % inhibition values at different compound concentrations using a 4-parameter equation. These calculations are carried out using Activity Base (IDBS) or Screener (Genedata) data analysis programs.

IDH1/R132H = target: T2, IDH1/R132H (Homo sapiens, UniProt O75874, R132H); experiment: Biochemical assay for IDH1 R132H mutant enzyme (2HG by RapidFire MS); conditions: mean ± standard deviation of the mean; 90 minutes reaction
T2 construct: His-tag (N); made in house; host or cells: E. coli
Method: (§1) IDH1-R132H, IDH1-R132C, IDH2-R172K and IDH2-R140Q mutant enzymes catalyze the conversion of αKG to 2HG. 2HG is analyzed using in-line solid phase extraction and mass spectrometry. This analysis is carried out in a RapidFire® instrument coupled to a 6460 triple quadrupole mass spectrometer (G6460A Agilent).
(§2) IDH1 mutant (R132H and R132C) and IDH2 mutant (R140Q and R172K) proteins containing N-terminal His-tag are expressed in E. coli and purified using nickel affinity chromatography. The enzyme assays are carried out in V-bottom 96 well polypropylene plates containing 100 mM Tris-HCl buffer, 1 mM DTT, 0.005% TRITON™ X-100, 120 mM NaCl. For IDH1 R132H, α-ketoglutarate, NADPH and MnCl2 are included at final concentrations of 300 μM, 2.5 μM and 300 μM respectively. For IDH1 R132C, α-ketoglutarate, NADPH and MnCl2 are included at final concentrations of 100 μM, 10 μM and 100 μM respectively. For IDH2 R172K, α-ketoglutarate, NADPH and MnCl2 are included at final concentrations of 150 μM, 10 μM and 150 μM respectively. For IDH2 R140Q, α-ketoglutarate, NADPH and MnCl2 are included at final concentrations of 3000 μM, 10 μM and 100 μM respectively. Final pH=7.0. Test compound dissolved in DMSO stock is diluted in the reaction mix at a final DMSO concentration of 4%. Compounds are tested in dose-response format. The assay is started by addition of enzyme. Enzymes are used at the following final concentrations: IDH1 R132H, 2 nM; IDH1 R132C, 0.5 nM; IDH2 R172K, 1.2 nM; IDH2 R140Q, 1.2 nM. After 90 minutes the reaction is quenched by adding ACN (50:50) containing 3-hydroxy-1,5-pentanedioic-2,2,3,4,4-d5 acid (5d5-3HG) as an internal standard for mass spectrometry analysis and quantitation of reaction product. 2-Hydroxyglutarate (2HG) in quenched samples is separated using strong anionic exchange column chromatography (Phenomenex Strata-X-A SecurityGuard) and analyzed by mass spectrometry in a 6460 triple quadrupole mass spectrometer (G6460A Agilent). The 2HG signal detected is transformed into an analyte concentration using a calibration curve generated using known 2HG concentrations. […] IC50 values are obtained from the individual % inhibition values at different compound concentrations using a 4-parameter equation. These calculations are carried out using Activity Base (IDBS) or Screener (Genedata) data analysis programs.

IDH2/R172K = target: T3, IDH2/R172K (Homo sapiens, UniProt P48735, R172K); experiment: Biochemical assay for IDH2 R172K mutant enzyme (2HG by RapidFire MS); conditions: mean ± standard deviation of the mean; 90 minutes reaction
T3 construct: His-tag (N); made in house; host or cells: E. coli
T3 sequence (P48735 40-452 R172K): T1 sequence (P48735 40-452) with R133K
Method: as §1, §2

T2 sequence (O75874 whole entry R132H): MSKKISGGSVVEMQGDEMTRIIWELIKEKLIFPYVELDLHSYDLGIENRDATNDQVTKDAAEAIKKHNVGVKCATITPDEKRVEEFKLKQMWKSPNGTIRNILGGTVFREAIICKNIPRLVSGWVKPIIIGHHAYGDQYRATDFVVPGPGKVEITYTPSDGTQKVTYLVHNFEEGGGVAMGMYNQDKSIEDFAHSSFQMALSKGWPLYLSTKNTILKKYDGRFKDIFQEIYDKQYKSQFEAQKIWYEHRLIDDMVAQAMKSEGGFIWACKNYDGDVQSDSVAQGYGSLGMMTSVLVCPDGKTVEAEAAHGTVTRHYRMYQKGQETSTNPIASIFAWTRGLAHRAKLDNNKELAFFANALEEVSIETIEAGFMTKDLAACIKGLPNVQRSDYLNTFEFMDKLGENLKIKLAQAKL

SMILES | IC50 (IDH2 Wild-Type) | IC50 (IDH1/R132H) | IC50 (IDH2/R172K)
C=CC(=O)N1CCN(Cc2ccc([C@H](C)Nc3ncc4c(n3)N(CC(C)C)C(=O)OC4)cc2)CC1 [Example 3, 1-Isobutyl-7-[[(1S)-1-[4-[(4-prop-2-enoylpiperazin-1-yl)methyl]phenyl]ethyl]amino]-4H-pyrimido[4,5-d][1,3]oxazin-2-one] | 25.3 ± 21.3 µM | 0.0509 ± 0.0131 µM | 5.35 µM
C=CC(=O)N1CCN(Cc2ccc([C@H](C)Nc3ncc4c(n3)N(C)C(=O)OC4)cc2)CC1 [Example 19, 1-Methyl-7-[[(1S)-1-[4-[(4-prop-2-enoylpiperazin-1-yl)methyl]phenyl]ethyl]amino]-4H-pyrimido[4,5-d][1,3]oxazin-2-one] | 28.7 ± 1.5 µM | 0.776 ± 0.21 µM | 23 ± 12.4 µM
C=CC(=O)N1CCN(Cc2ccc([C@H](C)Nc3ncc4c(n3)N(CC(F)F)C(=O)OC4)cc2)CC1 [Example 20, 1-(2,2-difluoroethyl)-7-[[(1S)-1-[4-[(4-prop-2-enoylpiperazin-1-yl)methyl]phenyl]ethyl]amino]-4H-pyrimido[4,5-d][1,3]oxazin-2-one] | 12.5 ± 0.4 µM | 0.18 ± 0.033 µM | 6.78 ± 2.4 µM
C=CC(=O)N1CC2(CN(Cc3ccc([C@H](C)Nc4ncc5c(n4)N(C(C)C)C(=O)OC5)cc3)C2)C1 [Example 15, 1-Isopropyl-7-[[(1S)-1-[4-[(2-prop-2-enoyl-2,6-diazaspiro[3.3]heptan-6-yl)methyl]phenyl]ethyl]amino]-4H-pyrimido[4,5-d][1,3]oxazin-2-one] | 11.2 ± 6.4 µM | 0.128 ± 0.009 µM | 10.4 µM
C=CC(=O)N1CCN(Cc2ccc([C@H](C)Nc3ncc4c(n3)N(CC)C(=O)OC4)cc2)CC1 [Example 2, 1-Ethyl-7-[[(1S)-1-[4-[(4-prop-2-enoylpiperazin-1-yl)methyl]phenyl]ethyl]amino]-4H-pyrimido[4,5-d][1,3]oxazin-2-one] | 14.3 ± 3.11 µM | 0.11 ± 0.046 µM | 5.26 µM
C=CC(=O)N1CCN(Cc2ccc([C@H](C)Nc3ncc4c(n3)N(CC)C(=O)OC4)cc2F)CC1 [Example 16, 1-Ethyl-7-[[(1S)-1-[3-fluoro-4-[(4-prop-2-enoylpiperazin-1-yl)methyl]phenyl]ethyl]amino]-4H-pyrimido[4,5-d][1,3]oxazin-2-one] | 22.7 ± 11.8 µM | 0.116 ± 0.015 µM | 4.1 µM
C=CC(=O)N1CC(OCc2ccc([C@H](C)Nc3ncc4c(n3)N(CC(C)C)C(=O)OC4)cc2)C1 [Example 13, 1-Isobutyl-7-[[(1S)-1-[4-[(1-prop-2-enoylazetidin-3-yl)oxymethyl]phenyl]ethyl]amino]-4H-pyrimido[4,5-d][1,3]oxazin-2-one] | 4.62 ± 6.65 µM | 0.0777 ± 0.0196 µM | 5.34 µM
C=CC(=O)N1CCN(c2ccc([C@H](C)Nc3ncc4c(n3)N(C(C)C)C(=O)OC4)cc2)CC1 [Example 6, 1-Isopropyl-7-[[(1S)-1-[4-(4-prop-2-enoylpiperazin-1-yl)phenyl]ethyl]amino]-4H-pyrimido[4,5-d][1,3]oxazin-2-one] | 25.4 ± 6.32 µM | 0.15 ± 0.024 µM | 14.1 µM
C=CC(=O)N1CCN(Cc2ccc([C@H](C)Nc3ncc4c(n3)N([C@H](C)CO)C(=O)OC4)cc2)CC1 [Example 11, 1-[(1R)-2-Hydroxy-1-methyl-ethyl]-7-[[(1S)-1-[4-[(4-prop-2-enoylpiperazin-1-yl)methyl]phenyl]ethyl]amino]-4H-pyrimido[4,5-d][1,3]oxazin-2-one] | 12.5 ± 21.2 µM | 0.0802 ± 0.0519 µM | 7.84 µM

The remaining lines, values ahead:

IC50 (IDH2 Wild-Type) | IC50 (IDH1/R132H) | IC50 (IDH2/R172K) | SMILES
21.2 ± 32.2 µM | 0.0417 ± 0.0036 µM | 2.09 µM | C=CC(=O)N1CC(COc2ccc([C@H](C)Nc3ncc4c(n3)N(C(C)C)C(=O)OC4)cc2)C1 [Example 9, 1-Isopropyl-7-[[(1S)-1-[4-[(1-prop-2-enoylazetidin-3-yl)methoxy]-phenyl]ethyl]amino]-4H-pyrimido[4,5-d][1,3]oxazin-2-one]
27.4 ± 18.7 µM | 0.26 ± 0.035 µM | 6.61 µM | C=CC(=O)N1CC(N(C)Cc2ccc([C@H](C)Nc3ncc4c(n3)N(CC)C(=O)OC4)cc2)C1 [Example 10, 1-Ethyl-7-[[(1S)-1-[4-[[methyl-(1-prop-2-enoylazetidin-3-yl)amino]methyl]-phenyl]ethyl]amino]-4H-pyrimido[4,5-d][1,3]oxazin-2-one]
7 ± 13.3 µM | 0.0819 ± 0.0541 µM | 13 µM | C=CC(=O)N1CC2(CN(Cc3ccc([C@H](C)Nc4ncc5c(n4)N(CC)C(=O)OC5)cc3)C2)C1 [Example 14, 1-Ethyl-7-[[(1S)-1-[4-[(2-prop-2-enoyl-2,6-diazaspiro[3.3]heptan-6-yl)methyl]phenyl]ethyl]amino]-4H-pyrimido[4,5-d][1,3]oxazin-2-one]
0.83 ± 1.49 µM | 0.0786 ± 0.0189 µM | 1.46 µM | C=CC(=O)N1CC(OCc2ccc([C@H](C)Nc3ncc4c(n3)N(CC)C(=O)OC4)cc2)C1 [Example 4, 1-Ethyl-7-[[(1S)-1-[4-[(1-prop-2-enoylazetidin-3-yl)oxymethyl]phenyl]ethyl]amino]-4H-pyrimido[4,5-d][1,3]oxazin-2-one]
2.15 ± 0.13 µM | – | 0.469 ± 0.355 µM | C=CC(=O)N1CC=C(COc2ccc([C@H](C)Nc3ncc4c(n3)N(CC)C(=O)OC4)cc2)C1 [Example 22, 1-ethyl-7-[[(1S)-1-[4-[(1-prop-2-enoyl-2,5-dihydropyrrol-3-yl)methoxy]phenyl]ethyl]amino]-4H-pyrimido[4,5-d][1,3]oxazin-2-one]

From patent US10253041B2, “7-phenylethylamino-4H-pyrimido[4,5-d][1,3]oxazin-2-one compounds and their use as mutant IDH1 inhibitors” (Eli Lilly and Company, priority 2015, dated 2019)
